Columns and labels:
[1] = MTT cytotoxicity assay, HF-19; format: cell-based, human; settings: human, HF-19 lung fibroblast cells; HF-19 normal lung fibroblast, 48 h
Procedure: (§1) The cytotoxicity of the compounds to mammalian cells were determined using four human normal cell lines, namely, NB1RGB (skin fibroblast) and HF-19 (lung fibroblast) obtained from the RIKEN Bio Resource Center Cell Bank (Japan) and Chang Liver and Hs888Lu (lung) obtained from the European Collection of Authenticated Cell Cultures (ECACC). NB1RGB and HF-19 were maintained in minimum essential medium-α (MEM-α). Chang Liver and Hs888Lu were grown in Eagle's minimum essential medium (EMEM) and RPMI 1640, respectively. All of these media were supplemented with 10% fetal bovine serum (FBS) and 1% penicillin-streptomycin and were then incubated at 37°C under 5% CO2 in fully humidified conditions.
(§2) Cytotoxicity was determined using a 3-(4,5-dimethylthiazol-2-yl)-2,5-diphenyltetrazolium bromide (MTT) assay. The cells were treated with molucidin, ML-2-3, or ML-F52 at concentrations of ≤50 μM for 48 h. Cells were plated at a density of 0.5 × 10^4 cells/well into 96-well plates. After 24 h of incubation, cells were treated with various concentrations of each of the purified compounds for 48 h. Then, MTT solution was added to each well, and the cells were incubated for another 4 h. The precipitated MTT-formazan product was dissolved in 0.04 N HCl-isopropanol, and the amount of formazan was measured at a wavelength of 595 nm by a microplate reader (Immuno Mini NJ-2300; Nihon InterMed, Tokyo, Japan). Cytotoxicity was calculated as the percentage of live cells relative to the control culture. The selectivity index (SI) was expressed as the ratio of the IC50 obtained for mammalian cells and the IC50 for trypanosomes.

Plasmodium yoelii = assay: Preliminary in vivo studies against Plasmodium yoelii; settings: BALB/c mice, unpublished data
[2] = system: GUTat 3.1 strain of the bloodstream form of T. brucei brucei; assay: alamarBlue in vitro viability test for trypanosome parasites; format: cell-based; settings: Trypanosoma brucei, 48 h of incubation, read-out: IC50, antitrypanosomal activity
Procedure: The GUTat 3.1 strain of the bloodstream form of T. brucei brucei parasites was used in this study. Parasites were cultured in vitro according to the conditions established previously ([36]). Parasites were used when they reached a confluent concentration of 1 × 10^6 parasites/ml. Estimation of parasitemia was done with the Neubauer counting chamber. Parasites were diluted to a concentration of 3 × 10^5 parasites/ml with HM1-9 medium and were used for the various experiments.
The alamarBlue assay (Life Technologies, USA) was carried out on treated or untreated trypanosome parasites to ascertain their viability. The assay was performed in a 96-well plate following the manufacturer's instructions with modification. Briefly, 1.5 × 10^4 parasites were seeded with varied concentrations of plant material (extracts, fractions, or compounds) ranging from 0.78 μg/ml to […]. Final concentrations of EtOH and dimethyl sulfoxide (DMSO) were kept at <1% and 0.1%, respectively. After incubation of parasites with or without plant extracts or compounds for 24 h at 37°C in 5% CO2, 10% alamarBlue dye was added, and the parasites were incubated another 24 h in darkness. After a total of 48 h, the plate was read for absorbance at 540 nm using the Tecan Sunrise Wako spectrophotometer. The trend curve was drawn to obtain a 50% inhibitory concentration (IC50) of each plant material (extracts, fractions, and compounds).

[3] = system: four human normal cell lines (NB1RGB, HF-19, Chang Liver, Hs888Lu); assay: MTT cytotoxicity assay, all cell lines tested; format: cell-based
Procedure: as §1, §2

[4] = system: Trypanosoma brucei parasites; assay: FACS cell cycle assay, time course; format: cell-based
Procedure: Seeding and incubation of parasites with compounds were done under the same conditions as those for the alamarBlue assay as described above without addition of the alarmarBlue reagent. In this case, after 24 h of incubation, Guava reagents for Nexin and cell cycle assays were added, and each assay was performed using the Millipore Guava easyCyte 5HT fluorescence-activated cell sorter (FACS) machine according to the manufacturer's instruction. The Nexin assay and subsequent FACS analysis allowed for detection of markers of apoptosis induction by the plant materials. Similarly, the cell cycle assay and subsequent FACS analysis allowed for detection of markers of cell cycle alteration by the plant materials.
To investigate the sequence in which the events (apoptosis induction, PFR-2 suppression, and cell cycle alteration) involved in mechanisms of action occur, we examined the time course for the three events using ML-2-3-treated parasites. Trypanosoma brucei parasites were incubated for 0, 0.5, 1.5, 3, 6, and 24 h with 15 μM ML-2-3 and were then subjected to both Nexin assay and Western blot analyses using the PFR-2 antibody. We further investigated the time course of cell cycle alteration using ML-2-3-treated parasites at similar concentrations and incubation periods.

Structure (SMILES)	IC50 at 48 h [1] [µM]	efficacy against Plasmodium yoelii in vivo (Plasmodium yoelii)	IC50 [2] [µM]	selectivity index (SI) for all of the cell lines [3]	cytotoxicity among all cell lines ([3]; ≤50 μM, 48 h)	time of exposure to significant changes in cell cycle ([4]; 15 μM ML-2-3) [h]	S-phase cells ([4]; 15 μM, 0.5 h to 24 h)	G2/M-phase cells ([4]; 15 μM, within 0.5 h of exposure, decreased from 31%) [%]
COC(=O)C1=CO[C@@H]2O[C@H]3/C(=C\c4ccc(O)c(OC)c4)C(=O)O[C@]34C=C[C@H]1[C@H]24 [molucidin]	14.2	significant efficacy	1.27					
COc1cc(/C=C2/C(=O)O[C@]34C=C[C@@H]5C(C(=O)O)=CO[C@H](O[C@@H]23)[C@@H]54)ccc1O [ML-2-3]	> 50		3.75	> 10	did not show any cytotoxicity	≤ 0.5	stayed stable	9
CCOC(=O)C1=CO[C@@H]2O[C@H]3/C(=C\c4ccc(O)c(OC)c4)C(=O)O[C@]34C=C[C@H]1[C@H]24 [ML-F52]	10.9		0.43	> 10				
